The text below walks through data of patent US20200095296A1, “USE OF PEPTIDES AS BIOMARKERS IN THE DIAGNOSIS, CONFIRMATION AND TREATMENT OF A NEUROLOGICAL DISORDER AND TCR AND/OR HLA IMMUNOPROFILING IN NEURODEGENERATIVE DISEASE” (THE TRUSTEES OF COLUMBIA UNIVERSITY IN THE CITY OF NEW YORK, priority 2017, published 2020).

In one assay the test system is PBMC. In words: IFNγ and IL-5 dual ELISPOT after 14 days culture of PBMC with α-syn peptide pools. The class given is cell-based, human. The settings on record: IFNγ and IL-5 ELISPOT. The protocol:
To determine whether α-syn derived peptides were recognized by T cells, responses were assayed to pools that each contained ˜twenty 9-10aa peptides predicted to bind common HLA class I types 15, and 15aa peptides spanning the protein that could elicit HLA class II responses. PBMCs from PD and HC were stimulated for 14 days, and IFNγ and IL-5 responses were measured by dual color ELISPOT, enabling quantification of responsive cells. Positive pools were deconvoluted to identify the peptides eliciting cytokine responses. IFNγ was used as a representative cytokine to detect CD8+/HLA class I and CD4+ Th1/Class II T cells, and IL-5 as a representative cytokine secreted by CD4+ Th2/Class II T cells. […] No cells producing both IL-5 and IFNγ were detected. […]
After 14 days of culture with individual peptide pools (5 μg/ml), the response to pools and individual peptides (5 μg/ml) was measured by IFNγ and IL-5 dual ELISPOT 37. […]
To determine whether α-syn-derived peptides were recognized by T cells, responses to pools that each contained approximately twenty peptides of 9-10 amino acids (a.a.) predicted to bind common HLA class I types, (Vita, R. et al. The immune epitope database (IEDB) 3.0. Nucleic Acids Res. 43, D405-D412 (2015)) and peptides of 15 amino acids spanning the protein that could elicit HLA class II responses were assayed. […] No cells producing both IL-5 and IFNγ were detected. […]

A further assay concerns the target HLA A*11:01 (Homo sapiens, UniProt P04439, A114D/D185E/E176A/F33Y/L180Q/S129P/T187R). The experiment in a line: competition binding assay, purified HLA A*11:01 molecules. The following applies: in vitro.

Regarding “GKTKEGVLYVGSKTK [α-syn 15 mer aa31-45, Y39 region]”, the cytokine response elicited entry with PBMC was “apparent Class II restricted IL-5 and IFNγ response”; in the assay with PBMC (listed as GKEGVLYVGSKTK), “apparent class II restricted IL-5 and IFNy response”.
On to GVLYVGSKTK [α-syn 10 mer aa36-45], for which the “binding to purified HLA A*11:01 molecules (IC50)” value at HLA A*11:01 is on record as “bound poorly”.
As for VLYVGSKTKK [10 mer aa37-46], the “binding to purified HLA A*11:01 molecules (IC50)” value on HLA A*11:01 is on record as “bound poorly”.
